From patent US9695155B2, “Herbicidal substituted pyrimidinyloxy benzene compounds” (E. I. DU PONT DE NEMOURS AND COMPANY, priority 2013, dated 2017)

Assays:
[1] = system: giant foxtail; assay: Test C postemergence; assay type: in vivo, Setaria faberii; conditions: Setaria faberi, post-emergence
Outline: (§1)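 Seeds were sown in loam–sand blend and sprayed preemergence, while plants at 1- to 4-leaf stage (2–18 cm) in peat-based medium received postemergence sprays; test chemicals were formulated in a non-phytotoxic solvent with surfactant. After 13–15 days in a greenhouse, injury was rated visually against controls, 0 (no effect) to 100 (complete control).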

[2] = system: barnyardgrass; assay: Test C postemergence; assay type: in vivo, Echinochloa crus-galli; conditions: Echinochloa crus-galli, post-emergence
Outline: as §1

[3] = system: barnyardgrass; assay: Test A preemergence; assay type: in vivo, Echinochloa crus-galli; conditions: Echinochloa crus-galli, pre-emergence, 240 h
Outline: (§2)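 Pre- and postemergence greenhouse screen. Soil: loam + sand. Spray carrier: solvent mixture, non-phytotoxic, with surfactant. Post timing at 1–2 leaves, height 2–10 cm. Readout: visual injury on a 0–100 scale roughly 10 days after application, untreated plants as reference.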

[4] = system: lambsquarters; assay: Test C postemergence; assay type: in vivo, Chenopodium album; conditions: Chenopodium album, post-emergence
Outline: as §1

[5] = system: barnyardgrass; assay: Test A postemergence; assay type: in vivo, Echinochloa crus-galli; conditions: Echinochloa crus-galli, post-emergence, 240 h
Outline: as §2

[6] = system: sedge, umbrella; assay: Test B flooded paddy test; assay type: in vivo, Cyperus difformis; conditions: Cyperus difformis, Flood, 250 g ai/ha; 0 to 100 scale where 0 is no effect and 100 is complete control; read-out: Plant response rating, Sedge, Umbrella
Outline: (§3)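 Plants at 2-leaf stage; pots flooded to 3 cm above soil and compound applied directly into paddy water, depth held throughout. After 13 to 15 days in greenhouse, visual rating versus controls on 0 (no effect) to 100 (complete control) scale.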

[7] = system: large (Lg) crabgrass; assay: Test C postemergence; assay type: in vivo, Digitaria sanguinalis; conditions: Digitaria sanguinalis, post-emergence
Outline: as §1

[8] = system: barnyardgrass; assay: Test B flooded paddy test; assay type: in vivo, Echinochloa crus-galli; conditions: Echinochloa crus-galli; Flood, 250 g ai/ha; 0 to 100 scale where 0 is no effect and 100 is complete control; read-out: Plant response rating, Barnyardgrass
Outline: as §3

[9] = system: pigweed; assay: Test A postemergence; assay type: in vivo, Amaranthus retroflexus; conditions: Amaranthus retroflexus, post-emergence, 0 to 100 scale where 0 is no effect and 100 is complete control, read-out: Plant response rating, Pigweed
Outline: as §2

[10] = system: wild oat; assay: Test C postemergence; assay type: in vivo, Avena fatua; conditions: Avena fatua, post-emergence
Outline: as §1

[11] = system: large (Lg) crabgrass; assay: Test A preemergence; assay type: in vivo, Digitaria sanguinalis; conditions: Digitaria sanguinalis, pre-emergence, 240 h
Outline: as §2

[12] = system: chickweed; assay: Test C postemergence; assay type: in vivo, Stellaria media; conditions: Stellaria media, post-emergence
Outline: as §1

[13] = system: rice; assay: Test B flooded paddy test; assay type: in vivo, Oryza sativa; conditions: Oryza sativa; Flood, 250 g ai/ha; 0 to 100 scale where 0 is no effect and 100 is complete control; read-out: Plant response rating, Rice
Outline: as §3

[14] = system: morningglory; assay: Test C postemergence; assay type: in vivo, Ipomoea coccinea; conditions: Ipomoea, post-emergence
Outline: as §1

[15] = system: yellow nutsedge; assay: Test C postemergence; assay type: in vivo, Cyperus esculentus; conditions: Cyperus, post-emergence
Outline: as §1

[16] = 125 g ai/ha, 0 to 100 scale where 0 is no effect and 100 is complete control, read-out: Plant response rating, Barnyardgrass

FC(F)c1cnn(-c2ccccc2Oc2ncc(Cl)cn2)c1 [Compound 80, 5-chloro-2-[2-[4-(difluoromethyl)-1H-pyrazol-1-yl]phenoxy]pyrimidine]
pest or weed control at 16 g/ha ([1]; 16 g ai/ha, postemergence, visual rating, scale 0 to 100 (0 no effect, 100 complete control), 13 to 15 days, read-out: Foxtail, Giant plant response rating): 0% | pest or weed control at 125 g/ha ([1]; 125 g ai/ha, postemergence, read-out: Plant response rating (0 to 100), Foxtail, Giant): 5% | pest or weed control at 31 g/ha ([1]; Postemergence, 31 g ai/ha, scale 0 to 100 (0 no effect, 100 complete control), 13 to 15 days, read-out: Plant response rating, Foxtail, Giant): 5% | pest or weed control at 62 g/ha ([1]; Postemergence, 62 g ai/ha, scale 0 to 100 (0 no effect, 100 complete control), read-out: Plant response rating, Foxtail, Giant): 5% | pest or weed control at 16 g/ha ([2]; 16 g ai/ha, postemergence, visual rating, scale 0 to 100 (0 no effect, 100 complete control), 13 to 15 days, read-out: Barnyardgrass plant response rating): 0% | pest or weed control at 125 g/ha ([2]; 125 g ai/ha, postemergence, read-out: Plant response rating (0 to 100), Barnyardgrass): 5% | pest or weed control at 31 g/ha ([2]; Postemergence, 31 g ai/ha, scale 0 to 100 (0 no effect, 100 complete control), 13 to 15 days, read-out: Plant response rating, Barnyardgrass): 5% | pest or weed control at 62 g/ha ([2]; Postemergence, 62 g ai/ha, scale 0 to 100 (0 no effect, 100 complete control), read-out: Plant response rating, Barnyardgrass): 5% | pest or weed control at 125 g/ha [3, 16]: 60% | pest or weed control at 500 g/ha ([3]; 500 g ai/ha, 0 to 100 scale, 0 no effect, 100 complete control, approx. 10 days, read-out: Barnyardgrass plant response rating): 100% | pest or weed control at 125 g/ha ([4]; 125 g ai/ha, postemergence, read-out: Plant response rating (0 to 100), Lambsquarters): 55% | pest or weed control at 31 g/ha ([4]; Postemergence, 31 g ai/ha, scale 0 to 100 (0 no effect, 100 complete control), 13 to 15 days, read-out: Plant response rating, Lambsquarters): 60% | pest or weed control at 62 g/ha ([4]; Postemergence, 62 g ai/ha, scale 0 to 100 (0 no effect, 100 complete control), read-out: Plant response rating, Lambsquarters): 55% | pest or weed control at 125 g/ha [5, 16]: 70% | pest or weed control at 500 g/ha ([5]; 500 g ai/ha, 0 to 100 scale, 0 no effect, 100 complete control, read-out: Plant response rating Barnyardgrass): 100% | pest or weed control at 250 g/ha [6]: 80% | pest or weed control at 16 g/ha ([7]; 16 g ai/ha, postemergence, visual rating, scale 0 to 100 (0 no effect, 100 complete control), 13 to 15 days, read-out: Crabgrass, Large plant response rating): 0% | pest or weed control at 125 g/ha ([7]; 125 g ai/ha, postemergence, read-out: Plant response rating (0 to 100), Crabgrass, Large): 5% | pest or weed control at 31 g/ha ([7]; Postemergence, 31 g ai/ha, scale 0 to 100 (0 no effect, 100 complete control), 13 to 15 days, read-out: Plant response rating, Crabgrass, Large): 5% | pest or weed control at 62 g/ha ([7]; Postemergence, 62 g ai/ha, scale 0 to 100 (0 no effect, 100 complete control), read-out: Plant response rating, Crabgrass, Large): 5% | pest or weed control at 250 g/ha [8]: 0% | pest or weed control at 125 g/ha ([9]; 125 g ai/ha): 100% | pest or weed control at 500 g/ha ([9]; 500 g ai/ha): 100% | pest or weed control at 125 g/ha ([10]; 125 g ai/ha, postemergence, read-out: Plant response rating (0 to 100), Oat, Wild): 10% | pest or weed control at 31 g/ha ([10]; Postemergence, 31 g ai/ha, scale 0 to 100 (0 no effect, 100 complete control), 13 to 15 days, read-out: Plant response rating, Oat, Wild): 0% | pest or weed control at 62 g/ha ([10]; Postemergence, 62 g ai/ha, scale 0 to 100 (0 no effect, 100 complete control), read-out: Plant response rating, Oat, Wild): 5% | pest or weed control at 125 g/ha ([11]; 125 g ai/ha, 0 to 100 scale where 0 is no effect and 100 is complete control, read-out: Plant response rating, Crabgrass, Large): 100% | pest or weed control at 500 g/ha ([11]; 500 g ai/ha, 0 to 100 scale, 0 no effect, 100 complete control, approx. 10 days, read-out: Crabgrass, Large plant response rating): 100% | pest or weed control at 16 g/ha ([12]; 16 g ai/ha, postemergence, visual rating, scale 0 to 100 (0 no effect, 100 complete control), 13 to 15 days, read-out: Chickweed plant response rating): 50% | pest or weed control at 125 g/ha ([12]; 125 g ai/ha, postemergence, read-out: Plant response rating (0 to 100), Chickweed): 70% | pest or weed control at 31 g/ha ([12]; Postemergence, 31 g ai/ha, scale 0 to 100 (0 no effect, 100 complete control), 13 to 15 days, read-out: Plant response rating, Chickweed): 60% | pest or weed control at 62 g/ha ([12]; Postemergence, 62 g ai/ha, scale 0 to 100 (0 no effect, 100 complete control), read-out: Plant response rating, Chickweed): 65% | plant injury at 250 g/ha [13]: 0% | pest or weed control at 125 g/ha ([14]; 125 g ai/ha, postemergence, read-out: Plant response rating (0 to 100), Morningglory): 60% | pest or weed control at 31 g/ha ([14]; Postemergence, 31 g ai/ha, scale 0 to 100 (0 no effect, 100 complete control), 13 to 15 days, read-out: Plant response rating, Morningglory): 10% | pest or weed control at 62 g/ha ([14]; Postemergence, 62 g ai/ha, scale 0 to 100 (0 no effect, 100 complete control), read-out: Plant response rating, Morningglory): 60% | pest or weed control at 125 g/ha ([15]; 125 g ai/ha, postemergence, read-out: Plant response rating (0 to 100), Nutsedge, Yellow): 5% | pest or weed control at 31 g/ha ([15]; Postemergence, 31 g ai/ha, scale 0 to 100 (0 no effect, 100 complete control), 13 to 15 days, read-out: Plant response rating, Nutsedge, Yellow): 5% | pest or weed control at 62 g/ha ([15]; Postemergence, 62 g ai/ha, scale 0 to 100 (0 no effect, 100 complete control), read-out: Plant response rating, Nutsedge, Yellow): 5%
